Measured values reported in PMC5379745, “Coordinating antigen cytosolic delivery and danger signaling to program potent cross-priming by micelle-based nanovaccine” (Cell Discovery, 2017).

How the values were obtained:
[1] = system: DC2.4 cells; assay: Confocal imaging of intracellular localisation of RhB-labeled peptides; assay type: cell-based, mouse (C57BL/6); settings: 20 μM RhB-labeled peptide, 37 °C, 30 min (legend; text says 2 h), LysoTracker Green or EGFP-Rab5, confocal, three independent experiments
Experimental: DC2.4 cells or EGFP-Rab5 expressing DC2.4 cells were seeded in 35 mm glass-bottom plates. After overnight culture, different formulations of indicated Rhodamine-labeled peptides (20 μM) were added and incubated at 37 °C for 30 min or 2 h. Then, 100 nM Lyso-Tracker Green or ER-Tracker Green (Life Technologies, Grand Island, NY, USA) was added and incubated for 5 or 20 min, respectively. The processes of PEG-PE inserting into cell membranes, peptide internalization and the co-localization of peptides with early endosome (Rab5), lysosome or ER were imaged using a confocal microscope LSM-700 (ZEISS, Germany).
TC-1, a tumor cell line transformed from C57BL/6 primar y mouse lung cells, was kindly provided b y Dr. Xuemei Xu (Institute of Basic Medical Sciences Chinese Academ y of Medical Sciences & School of Basic Medicine, Peking Union Medical College, Beijing, China). DC2.4, an immortalized DC cell line derived from C57BL/6 mice, was kindl y provided by Dr. Li Tang (Ke y Laborator y of Protein Engineering, Academ y of Military Medical Sciences, Beijing, China). RAW 264.7, a macrophage like cell line derived from BALB/c mice, was purchased from the Type Culture Collection of the Chinese Academ y of Sciences (Shanghai, China). MC38 is a murine colon adenocarcinoma cell line. MC38- OVA was sorted and subcloned after MC38 cells were stable transduced with retrovirus expressing mouse […]–O T I.
B16-F10 murine melanoma cell line was originally obtained from ATCC, catalog no.
CRL-6475. All cells were cultured in complete RPMI1640 medium according to […]
Preparation of PE G-PE micellized antigenic peptides
Briefl y, peptides (HPV16 E7 43-62 , O VA 250-264 , sCT) or Rhodamine labeled peptides (RhB-peptide) were dissolved in methanol, respectivel y. Then the three peptides were respectively mixed with corresponding amount PEG 2000 -PE or FITC labeled PEG 2000 -PE(FITC-PP) which was dissolved in chloroform in a 1/10 molar ratio of peptide/PEG-PE. Then the peptide containing micelle were prepared as described in […]

[2] = Circular dichroism (CD) spectroscopy of secondary structure; assay type: physicochemical; settings: free peptide or PEG-PE micellized peptide
[3] = system: TC-1 cells; assay: Vaccination combined with cisplatin chemotherapy, TC-1 tumors; assay type: in vivo, C57BL/6 mice; settings: cisplatin 5 mg/kg i.v. three times, vaccine s.c. three times, with high dose tumor re-challenge, n=10
Experimental: To detect the LN targeting deliver y of pol ypeptide antigens by micelle, C57BL/6 mice were subcutaneousl y injected with 14.6 nmol different formulations of RhB labeled E7 peptide (E7, Pal-E7 and M-E7) at tail base. The DLNs were ex cised and digested into single cell suspension at 24h post-injection, the RhB+ DCs and Macrophages cells wer e detected b y flo w c ytom etr y.
Vaccination combined with cisplatin chemotherapy
C57BL/6 mice were inoculated subcutaneousl y with 5×10^4 TC-1 tumor cells. Two weeks later when the tumor volume reached 100 mm3 (day 0), tumor -bearing mice were treated with cisplatin (5mg/kg bod y weight) intravenousl y for three times at 5 days interval. On the same day of the last chemotherap y, mice were vaccinated subcutaneousl y with micelle vaccine or normal saline (NS) for three times at 7da ys interval. Tumor growth and tumor free rate was monitored twice per week.
Vaccination co mbined w ith surgical operation
C57BL/6 mice were injected subcutaneousl y on the right flank with 5×10^4 TC-1 tumor cells. One month later when the volume of tumor reached 1000mm 3 (day 0), mice were anesthetized and full resection was executed by excising the tumor using standard blunt dissection. Sterile silk sutures were used to close wounds.
Accompanied b y wound closure, mice were vaccinated subcutaneousl y with micelle vaccine or NS for three times at 7 days interval. […]

[4] = cited from earlier work
Excerpt: Both MPLA and LPS have very low critical micelle concentration to tend to form the micelle at 10^−9 mol concentration. Only their monomers can bind to the TLR4/MD-2 heterodimers, and after binding, two TLR4/MD-2 heterodimers form the TLR4/MD-2 heterotetramers for signaling transduction. As a chaperon, LBP in serum can induce disassembly of MPLA and LPS, and then transfer them with CD14 to their receptors (Supplementary Figure S3A; [36]). […] However, as a detoxic form of LPS, the adjuvant activity is also attenuated. […] One reason of PEG-PE micelles accounting for these may be its monomerization of MPLA. MPLA, as well as LPS, has very low critical micelle concentration (~10^−9 M), thus are usually present as aggregates [[32], ...

[5] = biological target: T1, TLR4 (Mus musculus, UniProt Q9JHF9+Q9QUK6); assay: M-MPLA activity assay in serum free medium or under LBP-blocking condition; assay type: cell-based, mouse (RAW264.7 cells); settings: RAW264.7 cells, 2 h, serum-free medium or 100 μg/ml LBPK95A, ELISA
T1 construct: endogenous in cells; host or cells: RAW264.7 (mouse macrophage-like cell line)
Experimental: (§1) 0.5 mg/ml with deionized water. Particle sizes were shown as intensity-w eight ed diameters. The values were repo rted as the mean ± standard deviation (SD) based on more than three individual measurements performed in triplicate.
(§2) […] RAW264.7 cells were seeded in 24-well plates overnight. Then, the cells were treated with 10, 100, 1000ng/ml MPLA, M-MPLA, Lipo/MPLA, PLA/MPLA, or PEG 2000 -DPG (1,2-dipalmitate-sn-gl yc e r o -3- O-[(polyethylene glycol)-2000]) micellized MPLA (DP-M-MP LA), PEG 2000 -L-DPG (1,2-dipalmitate-sn-gl yc e r o -3-(6-amido-2-aminohexanoyl ox y)-N-[(polyethylene glycol)-2000]) micellized MPLA (N-M-MPLA), respectively for 2 h prior to harvesting the supernatant. TLR4 activation was measured by the cumulative production of TNF-α using the mouse TNF-α ELISA kit (eBios cience, San Diego, CA, USA).
(§3) M-MPL A activity assay in serum f ree mediu m or under LBP-blocking condition RAW264.7 cells were seeded and cultured overnight. Then the cells were either treated (1) with s erum-free medium (S FM) or (2) with LBP-blocking pepti de. (1): The cells were washed with SFM three times before experiment, then treated with 100ng/ml MP LA, M-MP LA, or LPS in the p resen ce o r abs ence of serum respectivel y; (2):The cells were treated with or without LBPK95A (LBPK95A sequence:
(§4) added and incubated for 2h prior to harvesting the supernatant. TLR4 activation was […]

[6] = biological target: T2, TLR4/MD-2 (Mus musculus, UniProt Q9JHF9+Q9QUK6); assay: TLR4/MD-2 heterotetramer formation detection (MTS510 staining); assay type: cell-based, mouse (RAW264.7 cells); settings: RAW264.7 cells, 100 ng/ml, 15 min, 37 °C, flow cytometry
T2 construct: endogenous in cells; host or cells: RAW264.7 (mouse macrophage-like cell line)
Experimental: measured as describ ed ab ove.
TLR4/MD-2 heterotetramer forma tion detecti on RAW264.7 cells were stimulated with 100ng/ml MPLA, M+MPLA, M -MPLA, or LPS for 15min at 37℃. Then the treated cells were put on ice and washed with PBS.
After blocking with anti- FcγR mAb (2.4G2), the cells were incubated with one of the following antibodies: MTS510 PE, Rat IgG2a K isotype control PE. Finally, the cells were anal yz ed b y flow cyt ometr y (Calibur, BD Bioscience).
Bone marrow dendritic cells (BMDC) g enera tion
BMDCs are generated as described previously 2. Briefly, bone marrow (BM) cells were collected from tibias and femurs of female C57BL/6 mice. At da y 0, 2×10^6 BM cells were cultured in 100mm plate with 10ml complete RPMI 1640 medium containing 200 U/ml rmGM-CSF (PeproTech, Rocky Hill, NJ). At day 3, another 10 ml RPMI 1640 medium containing 200U/ml rmGM-CSF were added. At day 6, the immature BMDCs were collected and read y to us e.
BMDCs or splenocytes from C57BL/6 mice were seeded in 96-well plates and cultured in the presence of 100 ng/ml different MPLA formulations (MPLA, M+MP LA, M- MPLA), or 10 μg empt y PEG -PE micelle. For RNA detection, BMDCs were collected 1h after stimulation. For protein detection, the supernatants were […]

[7] = biological target: T1, TLR4; assay: MPLA activity assay (TNF-α ELISA); assay type: cell-based, mouse (RAW264.7 cells); settings: RAW264.7 cells, 2 h, mean±s.d. n=4
Experimental: as §1, §2, §3, §4

[8] = In vivo imaging (IVIS) of lymphatic trafficking; parameters: species or system C57BL/6 mice; settings: subcutaneous at tail base, 15 μmol FITC, 0 to 168 h
Excerpt: C57BL/6 mice were subcutaneously injected with 15 μmol (FITC) of different FITC-labeled formulations (FITC, F-L, F-M) at tail base. The diffusion from injection sites was detected using an in vivo imaging system (IVIS) (Caliper life Sciences, Hopkinton, MA, USA). Spectrum unmixing technique was applied to reducing the effect of native tissue auto-fluorescence, separating detecting fluorescence and analyzing fluorescence diffusion. For imaging on inguinal and axillary LNs, LNs were excised and imaged at indicated time points. An image set (Ex: 500, Em: 540, f4, bin 8, 2 s) was collected. Living Image software Version 4.4 (Caliper Life Sciences, Waltham, MA, USA) was used to acquire and quantify the fluorescence imaging data sets.

T1 sequence (Q9JHF9 19-160): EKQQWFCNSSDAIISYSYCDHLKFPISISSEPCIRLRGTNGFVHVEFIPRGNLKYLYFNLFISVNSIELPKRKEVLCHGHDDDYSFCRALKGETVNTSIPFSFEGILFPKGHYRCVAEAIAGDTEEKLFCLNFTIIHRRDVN
T1 sequence (Q9QUK6 26-835): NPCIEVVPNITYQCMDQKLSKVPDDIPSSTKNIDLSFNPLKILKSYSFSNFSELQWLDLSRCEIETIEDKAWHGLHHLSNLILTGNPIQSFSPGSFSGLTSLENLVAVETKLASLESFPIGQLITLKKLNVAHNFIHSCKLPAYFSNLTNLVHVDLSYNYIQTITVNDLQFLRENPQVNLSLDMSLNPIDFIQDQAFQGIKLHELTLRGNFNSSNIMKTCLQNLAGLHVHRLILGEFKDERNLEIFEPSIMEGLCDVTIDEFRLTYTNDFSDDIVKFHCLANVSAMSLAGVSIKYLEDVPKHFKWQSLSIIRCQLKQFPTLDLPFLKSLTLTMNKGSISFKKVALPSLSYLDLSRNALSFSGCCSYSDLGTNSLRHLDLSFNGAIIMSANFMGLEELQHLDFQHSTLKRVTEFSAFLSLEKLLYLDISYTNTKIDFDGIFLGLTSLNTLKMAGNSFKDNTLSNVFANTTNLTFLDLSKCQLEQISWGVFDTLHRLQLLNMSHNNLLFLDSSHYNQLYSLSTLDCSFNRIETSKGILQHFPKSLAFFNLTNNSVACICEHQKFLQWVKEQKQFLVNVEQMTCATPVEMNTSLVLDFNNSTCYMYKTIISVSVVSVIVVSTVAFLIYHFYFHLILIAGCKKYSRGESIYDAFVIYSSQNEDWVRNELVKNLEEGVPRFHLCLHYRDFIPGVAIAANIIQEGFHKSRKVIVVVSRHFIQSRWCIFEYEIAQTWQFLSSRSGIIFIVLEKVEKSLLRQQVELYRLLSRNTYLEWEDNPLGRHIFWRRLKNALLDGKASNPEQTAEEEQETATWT
T2 sequence (Q9JHF9 19-160): as the sequence (Q9JHF9 19-160) above
T2 sequence (Q9QUK6 26-835): as the sequence (Q9QUK6 26-835) above

salmon calcitonin [sCT]
Intracellular location of RhB-labeled peptide relative to lysosomes / endosomes [1]: contained within lysosomes | Secondary structure by CD spectroscopy [2]: non-α-helical peptides

N.N.[Cl][Pt][Cl] [cisplatin]
Mice remaining tumor-free at 3 months after treatment [3]: none

lipopolysaccharide [LPS]
Critical micelle concentration [4]: ~ 10^−9 M | Critical micelle concentration (concentration at which micelles tend to form) [4]: 10^−9 mol | TNF-α secretion in serum-free medium (without LBP) or with LBP-blocking peptide [5]: could not efficiently stimulate macrophage to secret TNF-α | MTS510 mAb reactive surface TLR4/MD-2 complex [6]: dramatically downregulated MTS510 mAb reactive surface TLR4/MD-2 complex

GQAEPDRAHYNIVTFCCKCD [E7, HPV16 E7_43-62 antigenic peptide, RhB-labeled for imaging]
Intracellular location of RhB-labeled peptide relative to lysosomes / endosomes [1]: contained within lysosomes

Monophosphoryl lipid A [MPLA]
Critical micelle concentration [4]: ~ 10^−9 M | Critical micelle concentration (concentration at which micelles tend to form) [4]: 10^−9 mol | TNF-α secretion in serum-free medium (without LBP) or with LBP-blocking peptide [5]: could not efficiently stimulate macrophage to secret TNF-α | MPLA concentration generating a comparable level of TNF-α [7]: 1 000 ng ml^−1

Fluorescein isothiocyanate [FITC]
Diffusion from the injection site [8]: mostly stayed and largely retained around the injection sites even 7 days post injection

SGLEQLESIINFEKL [OVA peptide, OVA250-264 antigenic peptide]
Intracellular location of RhB-labeled peptide relative to lysosomes / endosomes [1]: largely outside lysosomes
